Results reported in PubChem BioAssay AID328 (DTP/NCI, 2004).
“And” between values parts separate entries of the source, which are not always exact repeats. Equal values may be shown once. Toxic doses and inconclusive results are not listed.

Tested on: BDF1 mice, P388 leukemia ip, median survival T/C
Assay: NCI In Vivo Anticancer Drug Screen. Data for tumor model P388 Leukemia (intraperitoneal) in B6D2F1 (BDF1) mice
Conditions: endpoint: median survival time, higher = longer survival
How it was run: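 T/C = treated-group survival ÷ vehicle-control survival; tumour transplanted into mice before dosing.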

[1] = dose: 100.0 mg/kg/injection, schedule: Q04DX003 (ip), vehicle: saline
[2] = dose: 200.0 mg/kg/injection, schedule: Q04DX003 (ip), vehicle: saline
[3] = dose: 100.0 mg/kg/injection, schedule: Q04DX003 (ip), vehicle: saline with Tween-80
[4] = dose: 200.0 mg/kg/injection, schedule: Q04DX003 (ip), vehicle: saline with Tween-80
[5] = dose: 400.0 mg/kg/injection, schedule: Q04DX003 (ip), vehicle: saline with Tween-80
[6] = dose: 50.0 mg/kg/injection, schedule: Q01DX009 (ip), vehicle: saline
[7] = dose: 100.0 mg/kg/injection, schedule: Q01DX009 (ip), vehicle: saline
[8] = dose: 25.0 mg/kg/injection, schedule: Q01DX009 (ip), vehicle: water
[9] = dose: 50.0 mg/kg/injection, schedule: Q01DX009 (ip), vehicle: water
[10] = dose: 50.0 mg/kg/injection, schedule: Q04DX003 (ip), vehicle: water
[11] = dose: 100.0 mg/kg/injection, schedule: Q01DX009 (ip), vehicle: water
[12] = dose: 100.0 mg/kg/injection, schedule: Q04DX003 (ip), vehicle: water
[13] = dose: 200.0 mg/kg/injection, schedule: Q04DX003 (ip), vehicle: water
[14] = dose: 400.0 mg/kg/injection, schedule: Q01DX009 (ip), vehicle: water
[15] = dose: 400.0 mg/kg/injection, schedule: Q04DX003 (ip), vehicle: water
[16] = dose: 66.0 mg/kg/injection, schedule: Q01DX009 (ip), vehicle: saline
[17] = dose: 150.0 mg/kg/injection, schedule: Q01DX009 (ip), vehicle: saline
[18] = dose: 150.0 mg/kg/injection, schedule: Q04DX003 (ip), vehicle: saline
[19] = dose: 1.56 mg/kg/injection, schedule: Q01DX009 (ip), vehicle: saline
[20] = dose: 6.25 mg/kg/injection, schedule: Q01DX009 (ip), vehicle: saline
[21] = dose: 100.0 mg/kg/injection, schedule: Q01DX009 (ip), vehicle: Klucel (hydroxypropylcellulose) (HPC)
[22] = dose: 200.0 mg/kg/injection, schedule: Q01DX009 (ip), vehicle: Klucel (hydroxypropylcellulose) (HPC)
[23] = dose: 400.0 mg/kg/injection, schedule: Q01DX009 (ip), vehicle: Klucel (hydroxypropylcellulose) (HPC)
[24] = dose: 50.0 mg/kg/injection, schedule: Q01DX009 (ip), vehicle: saline with Tween-80
[25] = dose: 100.0 mg/kg/injection, schedule: Q01DX009 (ip), vehicle: saline with Tween-80
[26] = dose: 200.0 mg/kg/injection, schedule: Q01DX009 (ip), vehicle: saline with Tween-80
[27] = dose: 25.0 mg/kg/injection, schedule: Q01DX009 (ip), vehicle: saline

SMILES: COC1C(OC(=O)/C=C/C=C/C=C/C=C/C(=O)O)CCC2(CO2)C1C1(C)OC1CC=C(C)C (stereo not drawn)
- T/C (dose: 88.0 mg/kg/injection, schedule: Q04DX003 (ip), vehicle: saline with Tween-80): 281 % of control
- T/C [1]: 100 % of control
- T/C (dose: 132.0 mg/kg/injection, schedule: Q04DX003 (ip), vehicle: saline with Tween-80): 281 % of control
- T/C [2]: 117 % of control

SMILES: COC1OC(COC(=O)c2ccccc2)C(OC(=O)c2ccccc2)C(OC(=O)c2ccccc2)C1OC(=O)c1ccccc1 (stereo not drawn)
- T/C [3]: 91 % of control
- T/C [4]: 91 % of control
- T/C [5]: 91 % of control

SMILES: COc1ccccc1/C=N/NC(=O)c1ccccc1
- T/C [3]: 100 % of control
- T/C [4]: 104 % of control
- T/C [5]: 104 % of control

SMILES: CC(O)CN1CNC(=S)NC1 (stereo not drawn)
- T/C [6]: 99 % of control
- T/C [7]: 101 % of control
- T/C (dose: 200.0 mg/kg/injection, schedule: Q01DX009 (ip), vehicle: saline): 106 % of control

SMILES: Cc1nc2ccc3nc(N)nc(N)c3c2nc1C
- T/C (dose: 50.0 mg/kg/injection, schedule: Q01DX001 (ip), vehicle: saline with Tween-80): 104 % of control
- T/C (dose: 100.0 mg/kg/injection, schedule: Q01DX001 (ip), vehicle: saline with Tween-80): 101 % of control
- T/C (dose: 200.0 mg/kg/injection, schedule: Q01DX001 (ip), vehicle: saline with Tween-80): 111 % of control

SMILES: Cc1cc(=O)c2cc(N(C)C)ccc2[nH]1
- T/C (dose: 0.78 mg/kg/injection, schedule: Q01DX009 (ip), vehicle: water): 110 % of control
- T/C (dose: 1.56 mg/kg/injection, schedule: Q01DX009 (ip), vehicle: water): 100 % of control
- T/C (dose: 3.12 mg/kg/injection, schedule: Q01DX009 (ip), vehicle: water): 101 % of control
- T/C (dose: 6.25 mg/kg/injection, schedule: Q01DX009 (ip), vehicle: water): 93 % of control
- T/C (dose: 12.5 mg/kg/injection, schedule: Q01DX009 (ip), vehicle: water): 94 % of control and 116 % of control
- T/C [8]: 114 % of control
- T/C [9]: 91 % of control
- T/C [10]: 95 % of control
- T/C [11]: 107 % of control
- T/C [12]: 103 % of control
- T/C [13]: 103 % of control
- T/C [14]: 86 % of control
- T/C [15]: 96 % of control

SMILES: CCCCc1c2c(nn1C(=O)C=C(C)C)C(=O)C=C(Nc1ccccc1)C2=O
- T/C [3]: 99 % of control
- T/C [4]: 95 % of control
- T/C [5]: 103 % of control

SMILES: O=C(CCCCC(=O)Nc1ccc(C(=O)Nc2cc(C3=NCCN3)cc(C3=NCCN3)c2)cc1)Nc1ccc(C(=O)Nc2cc(C3=NCCN3)cc(C3=NCCN3)c2)cc1
- T/C [16]: 150 % of control
- T/C [17]: 150 % of control
- T/C [18]: 154 % of control
- T/C [2]: 150 % of control

SMILES: Cc1cc2nc(CBr)c(CBr)nc2cc1C
- T/C [19]: 120 % of control
- T/C (dose: 3.12 mg/kg/injection, schedule: Q01DX009 (ip), vehicle: saline): 120 % of control
- T/C (dose: 3.12 mg/kg/injection, schedule: Q04DX003 (ip), vehicle: saline): 95 % of control
- T/C [20]: 95 % of control
- T/C (dose: 6.25 mg/kg/injection, schedule: Q04DX003 (ip), vehicle: saline): 100 % of control
- T/C (dose: 8.75 mg/kg/injection, schedule: Q01DX001 (ip), vehicle: Klucel (hydroxypropylcellulose) (HPC)): 94 % of control
- T/C (dose: 12.5 mg/kg/injection, schedule: Q04DX003 (ip), vehicle: saline): 90 % of control
- T/C (dose: 17.5 mg/kg/injection, schedule: Q01DX001 (ip), vehicle: Klucel (hydroxypropylcellulose) (HPC)): 88 % of control
- T/C (dose: 18.0 mg/kg/injection, schedule: Q04DX003 (ip), vehicle: saline): 90 % of control
- T/C (dose: 35.0 mg/kg/injection, schedule: Q01DX001 (ip), vehicle: Klucel (hydroxypropylcellulose) (HPC)): 88 % of control

SMILES: CCCC(=O)Nc1ccc(NS(C)(=O)=O)cc1OC
- T/C [21]: 95 % of control
- T/C (dose: 100.0 mg/kg/injection, schedule: Q04DX003 (ip), vehicle: Klucel (hydroxypropylcellulose) (HPC)): 100 % of control
- T/C [22]: 90 % of control
- T/C (dose: 200.0 mg/kg/injection, schedule: Q04DX003 (ip), vehicle: Klucel (hydroxypropylcellulose) (HPC)): 95 % of control
- T/C [23]: 90 % of control

SMILES: CCOc1ccc(N2CC(=O)N3CCCN3C(=O)C2)cc1
- T/C (dose: 100.0 mg/kg/injection, schedule: Q01DX005 (ip), vehicle: saline with Tween-80): 88 % of control

SMILES: CC(=O)N1C2=CCCC3CCCCC23c2ccccc21 (stereo not drawn)
- T/C [24]: 88 % of control and 109 % of control
- T/C [25]: 102 % of control and 104 % of control
- T/C [26]: 93 % of control
- T/C (dose: 400.0 mg/kg/injection, schedule: Q01DX009 (ip), vehicle: saline with Tween-80): 112 % of control

SMILES: CCCOC(=O)c1ccc([N+](=O)[O-])cc1
- T/C [21]: 95 % of control
- T/C [22]: 100 % of control
- T/C [23]: 100 % of control

SMILES: C=CCSc1nc(N)nc2c1ncn2C1CC(O)C(CO)O1 (stereo not drawn)
- T/C [27]: 102 % of control
- T/C [6]: 114 % of control and 111 % of control
- T/C [7]: 123 % of control and 95 % of control
- T/C [1]: 104 % of control
- T/C [26]: 181 % of control
- T/C [2]: 122 % of control and 94 % of control and 100 % of control
- T/C (dose: 300.0 mg/kg/injection, schedule: Q01DX009 (ip), vehicle: saline with Tween-80): 154 % of control
- T/C (dose: 400.0 mg/kg/injection, schedule: Q01DX009 (ip), vehicle: saline): 107 % of control
- T/C (dose: 400.0 mg/kg/injection, schedule: Q04DX003 (ip), vehicle: saline): 99 % of control and 104 % of control

SMILES: C=Cn1ccc(=O)[nH]c1=O (tested in a mixture with another compound)
- T/C [24]: 86 % of control
- T/C [25]: 121 % of control
- T/C [26]: 93 % of control

SMILES: CCOC(=O)c1cccc2cccc(C(=O)OCC)c12
- T/C (dose: 25.0 mg/kg/injection, schedule: Q01DX009 (ip), vehicle: saline with Tween-80): 106 % of control
- T/C [24]: 92 % of control
- T/C [25]: 114 % of control
- T/C [26]: 100 % of control

SMILES: CCOC(C[Se][Se]CC(OCC)OCC)OCC
- T/C [19]: 99 % of control
- T/C (dose: 3.13 mg/kg/injection, schedule: Q01DX009 (ip), vehicle: saline): 102 % of control
- T/C [20]: 102 % of control

SMILES: CCCCCCCCCCCCCC[S+](C)C
- T/C (dose: 12.5 mg/kg/injection, schedule: Q01DX009 (ip), vehicle: saline): 118 % of control
- T/C [27]: 100 % of control
- T/C (dose: 25.0 mg/kg/injection, schedule: Q04DX003 (ip), vehicle: saline): 100 % of control
- T/C (dose: 50.0 mg/kg/injection, schedule: Q04DX003 (ip), vehicle: saline): 104 % of control

SMILES: CC(=O)Nc1ccc2[nH]c(C)cc(=O)c2c1
- T/C [8]: 94 % of control
- T/C [9]: 94 % of control
- T/C [10]: 101 % of control
- T/C [11]: 92 % of control
- T/C [12]: 106 % of control
- T/C (dose: 200.0 mg/kg/injection, schedule: Q01DX009 (ip), vehicle: water): 91 % of control
- T/C [13]: 95 % of control
- T/C [14]: 92 % of control
- T/C [15]: 113 % of control

SMILES: [N-]=[N+]=NC(=O)c1cccs1
- T/C (dose: 50.0 mg/kg/injection, schedule: Q01DX009 (ip), vehicle: saline + alcohol): 99 % of control

SMILES: c1ccc2c(c1)OP(OP1Oc3ccccc3O1)O2
- T/C [27]: 95 % of control
- T/C [6]: 113 % of control
- T/C [18]: 113 % of control

SMILES: Cc1ccc(C(=O)C2C(c3ccccc3)N2Cc2ccccc2)cc1 (stereo not drawn)
- T/C [3]: 94 % of control and 99 % of control
- T/C [4]: 109 % of control and 92 % of control
- T/C [5]: 99 % of control and 87 % of control

SMILES: CC1(C)N=C(N)N=C(N)N1c1ccc(OCC(=O)N2CCOCC2)c(Cl)c1
- T/C [16]: 107 % of control
- T/C (dose: 100.0 mg/kg/injection, schedule: Q01DX009 (ip), vehicle: saline sonified): 172 % of control
- T/C [7]: 103 % of control
- T/C [17]: 111 % of control

SMILES: CCOC(=O)/C=C/c1ccco1
- T/C [24]: 100 % of control
- T/C (dose: 50.0 mg/kg/injection, schedule: Q04DX003 (ip), vehicle: saline with Tween-80): 104 % of control
- T/C [25]: 88 % of control
- T/C [3]: 109 % of control
- T/C [26]: 88 % of control
- T/C [4]: 109 % of control
